Assay results taken from patent publication US7951962B2, “Organic semiconductor compound, organic semiconductor thin film, organic semiconductor coating liquid, organic thin film transistor, methods for producing bis(benzo[4,5] thieno)[2,3-B:3′2′-E][1,4]dithin and bis(benzo [4,5]thieno)[2,3-B:2′3′-E][1,4]dithiin” (Seiko Epson Corporation, priority 2006, dated 2011).

Assays:
[1] = Solvent solubility; assay type: physicochemical
From the text: The solvent for dissolving the organic semiconductor compound material according to the embodiment may be a hydrocarbon, an alcohol, an ether, an ester, a halogen, a ketone, […], the BTX, a non-proton polar solvent or a mixture solvent thereof. The hydrocarbon may be hexane, heptane, octane or cyclohexane, for example. The alcohol may be methanol, ethanol, (iso-)propanol or butanol. The ether may be diethyl ether, tetrahydrofuran or dioxane and the ester may be ethyl acetate or butyl acetate. The halogen may be dichloromethane or chloroform and the ketone may be acetone or methyl ethyl ketone. The nitrile may be acetonitrile or methyl nitrile. The BTX is a mixture of benzene, toluene and xylene. The non-proton polar solvent may be dimethylsulfoxide (DMSO), dimethylformamide (DMF) or hexamethylphosphoramide (HMPA).
Based on logarithmic plotting in the graph, an ON/OFF ratio of the device was approximately […].

SMILES | melting point [°C] | solubility in solvent ([1]; the above-described solvent (hydrocarbon, alcohol, ether, ester, halogen, ketone, nitrile, BTX, non-proton polar solvent)) | solubility compared with known compounds ([1]; versus well-known low-molecular organic semiconductor compounds)
c1ccc2c3c(sc2c1)Sc1c(sc2ccccc12)S3 [bis(benzo[4,5]thieno)[2,3-b: 2′3′-e][1,4]dithiin] | 207 to 208.3 |  | 
c1ccc2c3c(sc2c1)Sc1sc2ccccc2c1S3 [bis(benzo[4,5]thieno)[2,3-b: 3′2′-e][1,4]dithiin] |  | soluble in the above-described solvent | higher solubility than well-known low-molecular organic semiconductor compounds
